Results: patent US5494907A, “11-β substituted-19-nor steroids” (Roussel UCLAF, priority 1993, dated 1996)

Legend:
[1] = test system: MCF-7 human breast tumour cells; experiment: Anti-proliferative activity on the growth of MCF-7 human breast tumour cells (DNA dosage); format: cell-based; details: MCF7, stimulated by EGF + PDGF, D7 to D9, read-out: IC50, concentration which inhibited by 50% the growth of the MCF-7 cells
Experimental: 2--Anti-proliferative activity on the growth of MCF-7 human breast tumour cells
The MCF-7 lines were maintained in culture in a base medium (according to 1) containing 5% of foetal calf serum at 37° C. under a humid atmosphere containing 5% CO2. The subconfluent cells were collected by trypsination (0.1% trypsin, 0.02% EDTA) and then rinsed by gentle centrifuging. A sample of the cells in suspension was counted with a Malassez cell.
The cells were resuspended in a base medium without phenol red in the presence of 5% of steroid-free FCS, and stimulated either by 0.1 nM of estradiol, or by 10 ng/ml of EGF+1 ng/ml of PDGF. The cells were seeded at a rate of 50,000 cells per well in multi-well plates (24 wells of 2.5 cm^2). Twenty-four hours after the seeding (DO), the product to be tested was added to the mixture in ethanolic solution (final concentration of ethanol: 0.1%), at a concentration of 10^-11 to 10^-6 M, the control wells receiving the same concentration of ethanol. The media containing the products were renewed every 48 hours. At the end of the experiment (D7 to D9), the mixture was extracted and the cells were immediately fixed with 250 microliters of methanol to dose the DNA. The anti-proliferative activity of the products was evaluated by their capacity to inhibit the increase of DNA relative to the control.
The DNA was dosed by a fluorimetric method using DABA (3,5diaminobenzoic acid) (according to 2): 200 microliters of DABA were added to each well and the plates were incubated for 45 minutes at 56° C. Then, 2 ml of 1N HCl were added and the fluorescence was measured using a fluorimeter (excitation wavelength: 408 nm, emission wavelength: 510 nm). The quantity of DNA per well was evaluated relative to a reference scale obtained by treating a calf thymus DNA standard under the same conditions.
The concentration in nM which inhibited by 50% the growth of the MCF-7 cells stimulated by EGF +PDGF (IC50) was determined in the manner indicated above.

[2] = target: T1, hER (recombinant human estrogen receptor) (Homo sapiens, UniProt P03372); experiment: Relative bond affinity (RBA) on recombinant human estrogen receptor, displacement of tritiated estradiol; format: binding; details: for RBA hER: Estradiol = 100, 0° C., 24 hours; for affinity for the estrogen receptor (in words): conclusion in words
T1 construct: made in house; host or cells: SF9 insect cells, recombinant baculovirus
T1 sequence (P03372 1-595): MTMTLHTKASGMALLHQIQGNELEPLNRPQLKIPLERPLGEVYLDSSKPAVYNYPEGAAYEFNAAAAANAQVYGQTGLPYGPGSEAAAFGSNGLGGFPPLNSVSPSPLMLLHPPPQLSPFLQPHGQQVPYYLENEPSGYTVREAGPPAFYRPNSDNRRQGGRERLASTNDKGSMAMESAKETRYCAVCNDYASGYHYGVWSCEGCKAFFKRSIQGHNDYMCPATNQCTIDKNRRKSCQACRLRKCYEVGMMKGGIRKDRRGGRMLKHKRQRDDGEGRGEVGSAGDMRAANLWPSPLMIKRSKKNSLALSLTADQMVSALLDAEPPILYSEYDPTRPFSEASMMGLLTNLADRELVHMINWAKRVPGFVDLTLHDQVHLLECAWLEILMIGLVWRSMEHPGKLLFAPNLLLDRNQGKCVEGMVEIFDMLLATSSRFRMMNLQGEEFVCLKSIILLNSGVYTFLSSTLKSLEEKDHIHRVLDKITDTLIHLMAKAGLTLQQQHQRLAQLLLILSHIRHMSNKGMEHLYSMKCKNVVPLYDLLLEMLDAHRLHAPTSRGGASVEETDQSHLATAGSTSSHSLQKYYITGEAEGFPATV
Description: 1--Activity on the hormonal receptors using either the natural hormonal receptor of a rat (AR), or the recombinant human receptor (PR, GR and ER).
A supernatant of SF9 cells containing the recombinant human estrogen receptor was obtained by the process described above for the progesterone receptor using the cDNA fragment described in the HEGO expression vector by TORA et al. (EMBO Journal (1989), Vol. 8 N° 7, pp. 1981-1986), containing the region coding for the human estrogen receptor of "wild type" with a glycine in position 400. The cells were lysed in the lysis buffer (1). The supernatant was incubated at 0° C. for 24 hours with a constant concentration (T) of tritiated estradiol in the presence of increasing concentrations either of unlabelled estradiol (0-1000×10^-9 M), or of the unlabelled product under test (1 to 25000×10^-9 M). The concentration of bound tritiated estradiol (B) was then measured in each incubate by the technique of adsorption with carbon dextran.
Calculation of the relative bond affinity (RBA).
The following 2 curves were traced: percentage of bound tritiated hormone B/BO as a function of the logarithm of the concentration of unlabelled reference hormone or as a function of the logarithm of the concentration of the unlabelled product under test.
The straight line of the following equation was determined:
BO=Concentration of bound tritiated hormone in the absence of any unlabelled product,
B=Concentration of bound tritiated hormone in the presence of a concentration X of unlabelled product,
B min=Concentration of bound tritiated hormone in the presence of a large excess of cold reference hormone (500 nM). The intersections of the straight line I50 and the curves allowed the evaluation of the concentrations of unlabelled reference hormone (CH) and of the unlabelled product under test (CX) which inhibited by 50% the specific binding of the tritiated hormone on the receptor.
The relative bond affinity (RBA) of the product under test was determined by the equation:
The RBA's of the reference products estradiol, progesterone, dexamethasone and testosterone were arbitrarily taken to be equal to 100.

Row | SMILES | IC50 [1] [nM] | RBA hER [2] | affinity for the estrogen receptor (in words) [2]
1 | CCCCN(C)S(=O)(=O)CCCCCOc1ccc([C@H]2C[C@]3(C)[C@@H](O)CC[C@H]3[C@@H]3CCc4cc(O)ccc4[C@H]32)cc1 [Example 7, N-butyl-5-[4-(Δ1,3,5(10)-estratrien-3,17β-diol-11β-yl)phenoxy]-N-methyl-pentanesulfonamide] | 0.015 | 4 | –
2 | CN(CC(F)(F)C(F)(F)C(F)(F)F)S(=O)(=O)CCCCCOc1ccc([C@H]2C[C@]3(C)[C@@H](O)CC[C@H]3[C@@H]3CCc4cc(O)ccc4[C@H]32)cc1 [Example 8, 5-[4-(Δ1,3,5(10)-estratrien-3,17β-diol-11βyl)-Phenoxy]-N-(2,2,3,3,4,4,4-heptafluorobutyl)-N-methyl-pentanesulfonamide] | 0.026 | 19 | marked affinity
3 | CCCCNS(=O)(=O)CCCCCOc1ccc([C@H]2C[C@]3(C)[C@@H](O)CC[C@H]3[C@@H]3CCc4cc(O)ccc4[C@H]32)cc1 [Example 2, N-butyl-5-[4-(Δ1,3,5(10)-estratrien-3,17β-diol-11β-yl)phenoxy]-pentanesulfonamide] | 0.016 | 21 | marked affinity
